# Experimental data: patent US9643963B2, “Antiparasitic compounds” (Avista Pharma Solutions, Inc., priority 2013, dated 2017)
# Tested on: Dirofilaria immitis
# Experiment: Dirofilaria immitis microfilariae motility assay or L4 stage assay (the source does not say which gave the EC50 values)
# Format: cell-based
# Details: 72 h, read-out: EC50 values
row,Compound,EC50
1,"O=C(Nc1nc(-c2ccccn2)ns1)c1ccc(I)cc1 [Compound 67, 4-iodo-N-[3-(2-pyridyl)-1,2,4-thiadiazol-5-yl]benzamide]",< 5 µM
2,"CC(C)(C)OC(=O)N1CCN(C(=O)c2ccc(C(=O)Nc3nc(-c4ccccn4)ns3)cc2)CC1 [Compound 70, tert-butyl 4-[4-[[3-(2-pyridyl)-1,2,4-thiadiazol-5-yl]carbamoyl]benzoyl]piperazine-1-carboxylate]",< 5 µM
3,"O=C(Nc1nc(-c2ccccn2)ns1)c1ccc(C(=O)N2CCCCC2)cc1 [Compound 72, 4-(piperidine-1-carbonyl)-N-[3-(2-pyridyl)-1,2,4-thiadiazol-5-yl]benzamide]",< 5 µM
4,"O=C(Nc1nc(-c2ccccn2)ns1)c1ccc(NC2CCNCC2)cc1 [Compound 79, 4-(4-piperidylamino)-N-[3-(2-pyridyl)-1,2,4-thiadiazol-5-yl]benzamide]",< 5 µM
5,"O=C(Nc1nc(-c2ccccn2)ns1)c1ccc(Cc2ccccc2)cc1 [Compound 89, 4-benzyl-N-[3-(2-pyridyl)-1,2,4-thiadiazol-5-yl]benzamide]",< 5 µM
6,"O=C(Nc1nc(-c2cccc(-c3cccnc3)n2)ns1)c1ccc(C(F)(F)F)cc1 [Compound 116, N-[3-[6-(3-pyridyl)-2-pyridyl]-1,2,4-thiadiazol-5-yl]-4-(trifluoromethyl)benzamide]",< 5 µM
7,"O=C(Nc1nc(-c2ccccn2)ns1)c1ccc(NCc2ccccc2)cc1 [Compound 118, 4-(benzylamino)-N-[3-(2-pyridyl)-1,2,4-thiadiazol-5-yl]benzamide]",< 5 µM
8,"O=C(Nc1nc(-c2ccccn2)ns1)c1cccc(Nc2ccccc2)c1 [Compound 119, 3-anilino-N-[3-(2-pyridyl)-1,2,4-thiadiazol-5-yl]benzamide]",< 5 µM
9,"CC(C)(C)COc1ccnc(-c2nsc(NC(=O)c3ccc(C(F)(F)F)cc3)n2)c1 [Compound 143, N-[3-[4-(2,2-dimethylpropoxy)-2-pyridyl]-1,2,4-thiadiazol-5-yl]-4-(trifluoromethyl)benzamide]",< 5 µM
